Target: T1, F508del (Homo sapiens, UniProt P13569, DEL508-508)
T1 construct: expressed in transfected cells
Experiment: Protocol 2: FRET membrane potential optical assay (VIPR), identification of correction compounds
Format: cell-based
Settings: F508del CFTR modulator activity; compounds of Table 1; read-out: EC30
Outline: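 NIH3T3 mouse fibroblasts stably expressing F508del-CFTR incubated with compound 16 h at 37 °C in serum-free medium, then loaded with CC2-DMPE/DiSBAC2(3) FRET dyes. Channel activated with 10 μM forskolin plus 20 μM genistein in Cl⁻-free (gluconate) bath; depolarisation from Cl⁻ efflux read on VIPR II.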

T1 sequence (P13569 with tags, fused parts or gaps DEL508-508): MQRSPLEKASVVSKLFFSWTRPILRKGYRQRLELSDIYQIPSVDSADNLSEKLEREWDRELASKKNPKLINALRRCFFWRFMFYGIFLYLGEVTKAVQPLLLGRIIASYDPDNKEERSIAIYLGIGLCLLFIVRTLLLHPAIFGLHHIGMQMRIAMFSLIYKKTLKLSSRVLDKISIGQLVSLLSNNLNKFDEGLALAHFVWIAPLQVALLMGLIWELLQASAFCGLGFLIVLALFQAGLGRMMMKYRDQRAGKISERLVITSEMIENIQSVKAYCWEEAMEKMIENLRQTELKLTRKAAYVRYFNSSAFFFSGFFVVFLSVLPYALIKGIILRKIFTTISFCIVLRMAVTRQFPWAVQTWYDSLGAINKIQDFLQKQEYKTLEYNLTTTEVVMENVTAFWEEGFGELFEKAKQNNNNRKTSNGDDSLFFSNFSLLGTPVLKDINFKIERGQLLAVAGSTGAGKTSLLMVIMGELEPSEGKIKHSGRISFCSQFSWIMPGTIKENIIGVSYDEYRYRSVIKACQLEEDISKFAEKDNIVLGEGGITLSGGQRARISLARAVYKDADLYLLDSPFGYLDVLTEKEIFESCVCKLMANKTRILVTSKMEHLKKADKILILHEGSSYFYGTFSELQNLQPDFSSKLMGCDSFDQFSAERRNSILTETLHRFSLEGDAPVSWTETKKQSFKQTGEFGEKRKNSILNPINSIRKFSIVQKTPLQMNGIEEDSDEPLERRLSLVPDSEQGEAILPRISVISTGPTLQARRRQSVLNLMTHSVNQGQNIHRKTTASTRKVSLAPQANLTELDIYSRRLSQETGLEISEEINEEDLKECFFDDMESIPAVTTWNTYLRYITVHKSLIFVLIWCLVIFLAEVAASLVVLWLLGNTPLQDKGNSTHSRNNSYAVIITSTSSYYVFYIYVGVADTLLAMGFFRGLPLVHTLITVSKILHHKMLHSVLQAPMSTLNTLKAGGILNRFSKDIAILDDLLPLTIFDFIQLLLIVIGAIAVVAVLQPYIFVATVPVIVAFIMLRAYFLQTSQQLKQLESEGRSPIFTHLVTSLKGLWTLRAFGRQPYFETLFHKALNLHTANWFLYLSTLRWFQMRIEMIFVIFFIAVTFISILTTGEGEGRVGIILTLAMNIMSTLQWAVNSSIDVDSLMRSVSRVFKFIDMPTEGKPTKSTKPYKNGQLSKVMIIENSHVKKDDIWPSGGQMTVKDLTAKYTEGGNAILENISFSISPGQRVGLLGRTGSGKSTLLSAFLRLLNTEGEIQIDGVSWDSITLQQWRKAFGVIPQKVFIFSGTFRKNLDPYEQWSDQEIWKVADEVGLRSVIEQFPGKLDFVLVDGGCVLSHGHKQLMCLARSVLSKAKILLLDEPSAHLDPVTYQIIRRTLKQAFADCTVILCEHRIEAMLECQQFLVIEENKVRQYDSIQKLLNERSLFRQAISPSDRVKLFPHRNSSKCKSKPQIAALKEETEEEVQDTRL

Structure (SMILES)	EC30
CCCCOc1cccc(S(=O)(=O)NC(=O)c2cccnc2N2CC(C)CC2(C)C)n1 (stereo not shown) [Compound 2167, N-[(6-butoxy-2-pyridyl)sulfonyl]-2-(2,2,4-trimethylpyrrolidin-1-yl)pyridine-3-carboxamide]	< 3 µM
COc1cccc(CNc2cccc(S(=O)(=O)NC(=O)c3cccnc3N3CC(C)CC3(C)C)n2)c1 (stereo not shown) [Compound 2168, N—[[6-[(3-methoxyphenyl)methylamino]-2-pyridyl]sulfonyl]-2-(2,2,4-trimethylpyrrolidin-1-yl)pyridine-3-carboxamide]	< 3 µM
CC1CN(c2ncccc2C(=O)NS(=O)(=O)c2cccc(OCc3ccc4c(c3)OCO4)n2)C(C)(C)C1 (stereo not shown) [Compound 2169, N—[[6-(1,3-benzodioxol-5-ylmethoxy)-2-pyridyl]sulfonyl]-2-(2,2,4-trimethylpyrrolidin-1-yl)pyridine-3-carboxamide]	< 3 µM
Cc1cc(-c2ccc(C(=O)NS(=O)(=O)c3cccc(N)n3)c(N3C[C@@H](C)CC3(C)C)n2)cnc1OC(C)C [Compound 2170, N-[(6-amino-2-pyridyl)sulfonyl]-6-(6-isopropoxy-5-methyl-3-pyridyl)-2-[(4S)-2,2,4-trimethylpyrrolidin-1-yl]pyridine-3-carboxamide]	< 3 µM
CC(C)COc1cc(F)cc(-c2ccc(C(=O)NS(=O)(=O)c3cccc(N)n3)c(N3CCCC(C)(C)CC3)n2)c1 [Compound 2171, N-[(6-amino-2-pyridyl)sulfonyl]-2-(4,4-dimethylazepan-1-yl)-6-(3-fluoro-5-isobutoxy-phenyl)pyridine-3-carboxamide]	< 3 µM
CC(C)c1ccccc1-c1ccc(C(=O)NS(=O)(=O)c2cccnc2N)c(N2C[C@@H](C)CC2(C)C)n1 [Compound 2172, N-[(2-amino-3-pyridyl)sulfonyl]-6-(2-isopropylphenyl)-2-[(4S)-2,2,4-trimethylpyrrolidin-1-yl]pyridine-3-carboxamide]	< 3 µM
CC1CN(c2ncccc2C(=O)NS(=O)(=O)c2cccc(OC3CCC(C(C)C)CC3)n2)C(C)(C)C1 (stereo not shown) [Compound 2173, N—[[6-(4-isopropylcyclohexoxy)-2-pyridyl]sulfonyl]-2-(2,2,4-trimethylpyrrolidin-1-yl)pyridine-3-carboxamide]	< 3 µM
Cc1ccc(O)c(-c2ccc(C(=O)NS(=O)(=O)c3ccc[nH]c3=O)c(N3C[C@@H](C)CC3(C)C)n2)c1 [Compound 2174, 6-(2-hydroxy-5-methyl-phenyl)-N-[(2-oxo-1H-pyridin-3-yl)sulfonyl]-2-[(4S)-2,2,4-trimethylpyrrolidin-1-yl]pyridine-3-carboxamide]	3 to 10 µM
CC1CN(c2ncccc2C(=O)NS(=O)(=O)c2cccc(N3CCN(Cc4ccncc4)CC3)n2)C(C)(C)C1 (stereo not shown) [Compound 2175, N—[[6-[4-(4-pyridylmethyl)piperazin-1-yl]-2-pyridyl]sulfonyl]-2-(2,2,4-trimethylpyrrolidin-1-yl)pyridine-3-carboxamide]	3 to 10 µM
Cc1ccccc1-c1ccc(C(=O)NS(=O)(=O)c2ccc[nH]c2=O)c(N2C[C@@H](C)CC2(C)C)n1 [Compound 2176, 6-(o-tolyl)-N-[(2-oxo-1H-pyridin-3-yl)sulfonyl]-2-[(4S)-2,2,4-trimethylpyrrolidin-1-yl]pyridine-3-carboxamide]	< 3 µM
CC1CN(c2ncccc2C(=O)NS(=O)(=O)c2cccc(Oc3cc(Cl)cc(C#N)c3)n2)C(C)(C)C1 (stereo not shown) [Compound 2177, N—[[6-(3-chloro-5-cyano-phenoxy)-2-pyridyl]sulfonyl]-2-(2,2,4-trimethylpyrrolidin-1-yl)pyridine-3-carboxamide]	< 3 µM
COc1ccc(OC)c(Nc2cccc(S(=O)(=O)NC(=O)c3cccnc3N3CC(C)CC3(C)C)n2)c1 (stereo not shown) [Compound 2179, N—[[6-(2,5-dimethoxyanilino)-2-pyridyl]sulfonyl]-2-(2,2,4-trimethylpyrrolidin-1-yl)pyridine-3-carboxamide]	< 3 µM
CC1CN(c2ncc(-c3cccc(C(C)(C)C)c3)cc2C(=O)NS(=O)(=O)c2cccc(N)n2)C(C)(C)C1 (stereo not shown) [Compound 2180, N-[(6-amino-2-pyridyl)sulfonyl]-5-(3-tert-butylphenyl)-2-(2,2,4-trimethylpyrrolidin-1-yl)pyridine-3-carboxamide]	< 3 µM
CC1CN(c2ncccc2C(=O)NS(=O)(=O)c2cccc(OCc3cccs3)n2)C(C)(C)C1 (stereo not shown) [Compound 2181, N—[[6-(2-thienylmethoxy)-2-pyridyl]sulfonyl]-2-(2,2,4-trimethylpyrrolidin-1-yl)pyridine-3-carboxamide]	< 3 µM
CC1CN(c2ncccc2C(=O)NS(=O)(=O)c2cccc(OCc3ccc(Cl)cc3F)n2)C(C)(C)C1 (stereo not shown) [Compound 2182, N—[[6-[(4-chloro-2-fluoro-phenyl)methoxy]-2-pyridyl]sulfonyl]-2-(2,2,4-trimethylpyrrolidin-1-yl)pyridine-3-carboxamide]	< 3 µM
C[C@@H]1CN(c2nc(-c3cccc(Cl)c3)ccc2C(=O)NS(=O)(=O)c2cccnc2N)C(C)(C)C1 [Compound 2183, N-[(2-amino-3-pyridyl)sulfonyl]-6-(3-chlorophenyl)-2-[(4S)-2,2,4-trimethylpyrrolidin-1-yl]pyridine-3-carboxamide]	< 3 µM

Structure (SMILES)	EC30
Cc1cccc(-c2cnc(N3CC(C)CC3(C)C)c(C(=O)NS(=O)(=O)c3cccc(N)n3)c2)c1 (stereo not shown) [Compound 2184, N-[(6-amino-2-pyridyl)sulfonyl]-5-(m-tolyl)-2-(2,2,4-trimethylpyrrolidin-1-yl)pyridine-3-carboxamide]	< 3 µM
C[C@@H]1CN(c2nc(-c3cccc(C#N)c3)ccc2C(=O)NS(=O)(=O)c2ccc[nH]c2=O)C(C)(C)C1 [Compound 2185, 6-(3-cyanophenyl)-N-[(2-oxo-1H-pyridin-3-yl)sulfonyl]-2-[(4S)-2,2,4-trimethylpyrrolidin-1-yl]pyridine-3-carboxamide]	3 to 10 µM
CC1CN(c2ncccc2C(=O)NS(=O)(=O)c2cccc(O[C@@H](C)c3ccccc3)n2)C(C)(C)C1 (stereo partly drawn) [Compound 2186, N—[[6-[(1S)-1-phenylethoxy]-2-pyridyl]sulfonyl]-2-(2,2,4-trimethylpyrrolidin-1-yl)pyridine-3-carboxamide]	< 3 µM
CC1CN(c2ncccc2C(=O)NS(=O)(=O)c2cccc(NCc3ccc(C(C)C)cc3)n2)C(C)(C)C1 (stereo not shown) [Compound 2187, N—[[6-[(4-isopropylphenyl)methylamino]-2-pyridyl]sulfonyl]-2-(2,2,4-trimethylpyrrolidin-1-yl)pyridine-3-carboxamide]	< 3 µM
CC1CN(c2ncccc2C(=O)NS(=O)(=O)c2cccc(OCC3CCC3)n2)C(C)(C)C1 (stereo not shown) [Compound 2188, N—[[6-(cyclobutylmethoxy)-2-pyridyl]sulfonyl]-2-(2,2,4-trimethylpyrrolidin-1-yl)pyridine-3-carboxamide]	< 3 µM
COc1ccc(F)cc1-c1ccc(C(=O)NS(=O)(=O)c2cccnc2N)c(N2C[C@@H](C)CC2(C)C)n1 [Compound 2189, N-[(2-amino-3-pyridyl)sulfonyl]-6-(5-fluoro-2-methoxy-phenyl)-2-[(4S)-2,2,4-trimethylpyrrolidin-1-yl]pyridine-3-carboxamide]	< 3 µM
CC1CN(c2ncccc2C(=O)NS(=O)(=O)c2cccc(Nc3ccc4c(c3)OCCO4)n2)C(C)(C)C1 (stereo not shown) [Compound 2190, N—[[6-(2,3-dihydro-1,4-benzodioxin-6-ylamino)-2-pyridyl]sulfonyl]-2-(2,2,4-trimethylpyrrolidin-1-yl)pyridine-3-carboxamide]	< 3 µM
CC(C)COc1ccn(-c2ccc(C(=O)NS(=O)(=O)c3cccnc3N)c(N3C[C@@H](C)CC3(C)C)n2)n1 [Compound 2191, N-[(2-amino-3-pyridyl)sulfonyl]-6-(3-isobutoxypyrazol-1-yl)-2-[(4S)-2,2,4-trimethylpyrrolidin-1-yl]pyridine-3-carboxamide]	< 3 µM
CC(CO)COc1ccn(-c2ccc(C(=O)NS(=O)(=O)c3cccnc3N)c(N3C[C@@H](C)CC3(C)C)n2)n1 (stereo partly drawn) [Compound 2192, N-[(2-amino-3-pyridyl)sulfonyl]-6-[3-(3-hydroxy-2-methyl-propoxy)pyrazol-1-yl]-2-[(4S)-2,2,4-trimethylpyrrolidin-1-yl]pyridine-3-carboxamide]	< 3 µM
CC1CN(c2ncccc2C(=O)NS(=O)(=O)c2cccc(Nc3ccc4c(ccn4C)c3)n2)C(C)(C)C1 (stereo not shown) [Compound 2193, N—[[6-[(1-methylindol-5-yl)amino]-2-pyridyl]sulfonyl]-2-(2,2,4-trimethylpyrrolidin-1-yl)pyridine-3-carboxamide]	< 3 µM
COc1ccc(OC)c(-c2ccc(C(=O)NS(=O)(=O)c3cccnc3N)c(N3C[C@@H](C)CC3(C)C)n2)c1 [Compound 2195, N-[(2-amino-3-pyridyl)sulfonyl]-6-(2,5-dimethoxyphenyl)-2-[(4S)-2,2,4-trimethylpyrrolidin-1-yl]pyridine-3-carboxamide]	< 3 µM
COc1ccc2nc(N3C[C@@H](C)CC3(C)C)c(C(=O)NS(=O)(=O)c3cccc(N)n3)cc2c1 [Compound 2196, N-[(6-amino-2-pyridyl)sulfonyl]-6-methoxy-2-[(4S)-2,2,4-trimethylpyrrolidin-1-yl]quinoline-3-carboxamide]	< 3 µM
CCCC(C)Nc1cccc(S(=O)(=O)NC(=O)c2cccnc2N2CC(C)CC2(C)C)n1 (stereo not shown) [Compound 2197, N—[[6-(1-methylbutylamino)-2-pyridyl]sulfonyl]-2-(2,2,4-trimethylpyrrolidin-1-yl)pyridine-3-carboxamide]	< 3 µM
Cc1nc2cc(Nc3cccc(S(=O)(=O)NC(=O)c4cccnc4N4CC(C)CC4(C)C)n3)ccc2s1 (stereo not shown) [Compound 2198, N—[[6-[(2-methyl-1,3-benzothiazol-5-yl)amino]-2-pyridyl]sulfonyl]-2-(2,2,4-trimethylpyrrolidin-1-yl)pyridine-3-carboxamide]	< 3 µM
Cc1c(F)cccc1-c1ccc(C(=O)NS(=O)(=O)N2CC[C@H](N)C2)c(N2C[C@@H](C)CC2(C)C)n1 [Compound 2199, N-[(3S)-3-aminopyrrolidin-1-yl]sulfonyl-6-(3-fluoro-2-methyl-phenyl)-2-[(4S)-2,2,4-trimethylpyrrolidin-1-yl]pyridine-3-carboxamide]	3 to 10 µM
